# According to patent US20080096894A1, “Anti-Bacterial Compounds” (ASTON UNIVERSITY, priority 2005, published 2008):
# Read-outs that look alike come from different tables or passages of the source.
# Assays:
# E. faecium = assay: MIC, agar dilution, multipoint inoculator; format: cell-based, Enterococcus faecium; conditions: Enterococcus faecium, upper value of MIC reading, read-out: MIC
# Outline: (§1)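 Each strain was spot-inoculated (10^4 CFU) onto Mueller Hinton agar plates carrying compound dilutions, using a multipoint device, and the MIC was recorded.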
# S. epidemisis = assay: MIC, agar dilution, multipoint inoculator; format: cell-based, Staphylococcus epidermidis; conditions: Staphylococcus epidermidis, upper value of MIC reading, read-out: MIC
# Outline: as §1
# [1] = tested on: C. difficile (NCTC 11204 and thirty-two clinical isolates); assay: Minimum Inhibitory Concentration (MIC) against C. difficile, microtiter plate, anaerobic, 48 hours; format: cell-based, Clostridium difficile; conditions: Clostridioides difficile, read-out: MIC
# Method: (§2) Compounds 4PYcq and 4PYOfi were screened against one NCTC strain and thirty-two clinical isolates of Clostridium difficile as described below.
# (§3) The antimicrobial compounds were prepared by adding 5.12 mg of each compound to 1 ml of DMSO. From each solution 100 μl was then aseptically transferred into 1 ml of sterile distilled water to give a concentration of 512 μg/ml. 100 μl of each diluted compound was then added to the first well of a sterile 96-well microliter plate. Serial dilutions were performed to give a concentration range spanning from 0 to 512 μg/ml of each compound. The microtiter plate containing the antimicrobials was left to equilibrate in an anaerobic cabinet for 3 hours before the addition of C. difficile cells. An overnight culture of C. difficile (NCTC 11204) was standardized to an OD^600 of 0.04 (approximately 10^6 CFU/ml), using Wilkins Chalgren broth and was vortexed for 60 seconds to ensure there was a uniform suspension. 100 μl of standardized culture was then added to each well of the microtiter plate, containing the equilibrated antimicrobials. The final concentrations of the antimicrobials in the wells therefore ranged from […] and the concentration of the culture was 10^5 CFU/ml in each well. The microtiter plate was incubated at 37° C., for 48 hours under anaerobic conditions. The MIC was determined as the lowest concentration of antimicrobial agent inhibiting the total growth of C. difficile cells. After incubation, the total solution from each well was aseptically spread onto a separate Wilkins chalgren agar plate. Plates were incubated for 48 hours, at 37° C., under anaerobic conditions. The number of colonies on each plate was counted after incubation and the MBC was determined as the lowest concentration of the antimicrobial agent at which 99.9% of organisms in the original inoculum were killed.
# Propionibacterium acnes = assay: MIC against Propionibacterium acnes, microtitre double dilution in BHI; format: cell-based; conditions: Cutibacterium acnes, read-out: MIC
# Method: Compounds 4PYcq and 4PYOfi were screened against one NCTC stain and seven clinical isolates of Propionibacterium acnes as described below.
# Bacterial strains of Propionibacterium acnes, stored on beads at −20° C., were plated onto Brain heart infusion (BHI) agar plates. The cultures were incubated anaerobically for 4 days at 37° C.
# Bacterial suspensions were prepared by diluting bacterial suspensions with BHI to obtain bacterial concentrations approximately 2×10^6 cfu/ml.
# The test antimicrobial compounds were prepared by diluting the compound with appropriate nutrient broth to obtain correct stock solution. 50 μl of BHI were aliquoted onto the wells of the round-bottomed microtitre plate. 50 μl of the antimicrobial compounds were added onto the wells in the first column of the plate and several serial double dilutions were performed along the wells on each row. Following the series of double dilutions of the test compound the bacterial suspension were added onto each well except on the last column which served as a negative control. The lowest concentration of the test compound which inhibited bacterial growth was regarded as MIC of the compound.
# Acinetobater spp. = assay: activity against Acinetobacter spp.; format: cell-based; conditions: Gram-negative bacterium
# [2] = tested on: C. difficile (NCTC 11204 and thirty-two clinical isolates); assay: Minimum Bactericidal Concentration (MBC) against C. difficile, 99.9% kill; format: cell-based, Clostridium difficile; conditions: Clostridioides difficile, read-out: MBC
# Method: as §2, §3
# [3] = Clostridium difficile Isolate 1
# [4] = Clostridium difficile Isolate 2
# [5] = Clostridium difficile Isolate 3
# [6] = Clostridium difficile Isolate 4
# [7] = Clostridium difficile Isolate 5
# [8] = Clostridium difficile Isolate 6
# [9] = Clostridium difficile Isolate 7
# [10] = Clostridium difficile Isolate 8
# [11] = Clostridium difficile Isolate 9
# [12] = Clostridium difficile Isolate 10
# [13] = Clostridium difficile Isolate 11
# [14] = Clostridium difficile Isolate 12
# [15] = Clostridium difficile Isolate 13
# [16] = Clostridium difficile Isolate 14
# [17] = Clostridium difficile Isolate 15
# [18] = Clostridium difficile Isolate 16
# [19] = Clostridium difficile Isolate 17
# [20] = Clostridium difficile Isolate 18
# [21] = Clostridium difficile Isolate 19
# [22] = Clostridium difficile Isolate 20
# [23] = Clostridium difficile Isolate 21
# [24] = Clostridium difficile Isolate 22
# [25] = Clostridium difficile Isolate 23
# [26] = Clostridium difficile Isolate 24
# [27] = Clostridium difficile Isolate 25
# [28] = Clostridium difficile Isolate 26
# [29] = Clostridium difficile Isolate 27
# [30] = Clostridium difficile Isolate 28
# [31] = Clostridium difficile Isolate 29
# [32] = Clostridium difficile Isolate 30
# [33] = Clostridium difficile Isolate 31
# [34] = Clostridium difficile Isolate 32
# [35] = Clostridium difficile NCTC 11204
smiles,measurement,setting,value
CC(C)(C)c1cc(/C=N/N=C(\N)c2ccncc2)c(O)c(C(C)(C)C)c1 [Compound 4PYcq],MIC,"E. faecium; 18 h, E. faecium ACTCC 10541",4 µg/mL
same,MIC,"E. faecium; NCTC7171, 18 h, E. faecium NCTC 7171",4 µg/mL
same,MIC,"S. epidemisis; 18 h, S. epidemisis Isolate 1",4 µg/mL
same,MIC,"S. epidemisis; NCTC11047, 18 h, S. epidemisis NCTC 11047",4 µg/mL
same,MIC,[1]; [3],4 to 8 µg/mL
same,MIC,[1]; [4],2 to 4 µg/mL
same,MIC,[1]; [5],2 to 4 µg/mL
same,MIC,[1]; [6],2 to 4 µg/mL
same,MIC,[1]; [7],2 to 4 µg/mL
same,MIC,[1]; [8],2 to 4 µg/mL
same,MIC,[1]; [9],4 to 8 µg/mL
same,MIC,[1]; [10],4 to 8 µg/mL
same,MIC,[1]; [11],4 to 8 µg/mL
same,MIC,[1]; [12],2 to 4 µg/mL
same,MIC,[1]; [13],2 to 4 µg/mL
same,MIC,[1]; [14],4 to 8 µg/mL
same,MIC,[1]; [15],4 to 8 µg/mL
same,MIC,[1]; [16],4 to 8 µg/mL
same,MIC,[1]; [17],4 to 8 µg/mL
same,MIC,[1]; [18],4 to 8 µg/mL
same,MIC,[1]; [19],2 to 4 µg/mL
same,MIC,[1]; [20],2 to 4 µg/mL
same,MIC,[1]; [21],4 to 8 µg/mL
same,MIC,[1]; [22],2 to 4 µg/mL
same,MIC,[1]; [23],4 to 8 µg/mL
same,MIC,[1]; [24],2 to 4 µg/mL
same,MIC,[1]; [25],2 to 4 µg/mL
same,MIC,[1]; [26],4 to 8 µg/mL
same,MIC,[1]; [27],4 to 8 µg/mL
same,MIC,[1]; [28],4 to 8 µg/mL
same,MIC,[1]; [29],4 to 8 µg/mL
same,MIC,[1]; [30],4 to 8 µg/mL
same,MIC,[1]; [31],4 to 8 µg/mL
same,MIC,[1]; [32],2 to 4 µg/mL
same,MIC,[1]; [33],4 to 8 µg/mL
same,MIC,[1]; [34],4 to 8 µg/mL
same,MIC,[1]; [35],4 to 8 µg/mL
same,MIC,"Propionibacterium acnes; NCTC737, P. acnes NCTC 737",64 to 128 µg/mL
same,MIC,Propionibacterium acnes; P. acnes Isolate 1,4 to 8 µg/mL
same,MIC,Propionibacterium acnes; P. acnes Isolate 2,32 to 64 µg/mL
same,MIC,Propionibacterium acnes; P. acnes Isolate 3,2 to 4 µg/mL
same,MIC,Propionibacterium acnes; P. acnes Isolate 4,128 to 256 µg/mL
same,MIC,Propionibacterium acnes; P. acnes Isolate 5,64 to 128 µg/mL
same,MIC,Propionibacterium acnes; P. acnes Isolate 6,64 to 128 µg/mL
same,MIC,Propionibacterium acnes; P. acnes Isolate 7,> 256 µg/mL
same,activity against Acinetobater spp. (in words),Acinetobater spp.,inactive
same,MBC,[2]; [3],4 to 8 µg/mL
same,MBC,[2]; [4],4 to 8 µg/mL
same,MBC,[2]; [5],2 to 4 µg/mL
same,MBC,[2]; [6],2 to 4 µg/mL
same,MBC,[2]; [7],2 to 4 µg/mL
same,MBC,[2]; [8],2 to 4 µg/mL
same,MBC,[2]; [9],4 to 8 µg/mL
same,MBC,[2]; [10],4 to 8 µg/mL
same,MBC,[2]; [11],4 to 8 µg/mL
same,MBC,[2]; [12],4 to 8 µg/mL
same,MBC,[2]; [13],2 to 4 µg/mL
same,MBC,[2]; [14],4 to 8 µg/mL
same,MBC,[2]; [15],4 to 8 µg/mL
same,MBC,[2]; [16],4 to 8 µg/mL
same,MBC,[2]; [17],4 to 8 µg/mL
same,MBC,[2]; [18],4 to 8 µg/mL
same,MBC,[2]; [19],4 to 8 µg/mL
same,MBC,[2]; [20],2 to 4 µg/mL
same,MBC,[2]; [21],4 to 8 µg/mL
same,MBC,[2]; [22],2 to 4 µg/mL
same,MBC,[2]; [23],4 to 8 µg/mL
same,MBC,[2]; [24],2 to 4 µg/mL
same,MBC,[2]; [25],2 to 4 µg/mL
same,MBC,[2]; [26],4 to 8 µg/mL
same,MBC,[2]; [27],4 to 8 µg/mL
same,MBC,[2]; [28],8 to 16 µg/mL
same,MBC,[2]; [29],4 to 8 µg/mL
same,MBC,[2]; [30],4 to 8 µg/mL
same,MBC,[2]; [31],4 to 8 µg/mL
same,MBC,[2]; [32],2 to 4 µg/mL
same,MBC,[2]; [33],4 to 8 µg/mL
same,MBC,[2]; [34],8 to 16 µg/mL
same,MBC,[2]; [35],4 to 8 µg/mL
